Experimental findings from article PMC8163982, “Partial agonism improves the anti-hyperglycaemic efficacy of an oxyntomodulin-derived GLP-1R/GCGR co-agonist” (Molecular Metabolism, 2021) are described below.

Data set [1] has as its target T1, SNAP-GLP-1R (Homo sapiens, UniProt P43220).
T1 construct: expressed in transfected cells
The data set can be described thus: GLP-1R internalisation by DERET in HEK293-SNAP-GLP-1R cells. The class given is cell-based. The conditions noted are these: average response of last 3 time points of 30 min, mean ± SEM, n = 5, read-out: DERET (HEK293-SNAP-GLP-1R) pEC50 (converted). On the procedure: The assay was performed as previously described. HEK-SNAP-GLP-1R cells were labelled using 40 nM of SNAP-Lumi4-Tb in complete medium for 60 min at room temperature. After washing, the cells were resuspended in HBSS containing 24 μM of fluorescein and dispensed into 96-well white plates. A baseline read was serially recorded for 5 min using a FlexStation 3 instrument at 37 °C in TR-FRET mode using the following settings: λex at 340 nm, λem at 520 and 620 nm, auto cut-off, delay of 400 μs, and integration time of 1500 μs? Ligands were then added, after which the signals were repeatedly recorded for 30 min. The fluorescence signals were expressed ratiometrically after first subtracting signals from wells containing 24 μM of fluorescein but no cells. Internalisation was quantified as the AUC relative to the individual well baseline, and concentration-response curves were generated with Prism 8.0.

Data set [2] concerns the target T1, SNAP-GLP-1R. The data set can be described thus: High content imaging assay for SNAP-GLP-1R internalisation. Format: cell-based. Particulars: high content analysis, mean ± SEM, n = 4, read-out: HCA assay (HEK293-SNAP-GLP-1R) pEC50 (converted). As for the experimental part: The assay was adapted from a previously described method. HEK293T cells were seeded in black clear-bottom plates coated with 0.1% poly-D-lysine and assayed 24 h after transfection with SNAP-tagged GLP-1R or GCGR plasmid DNA (0.1 μg per well). The cells were labelled with the cleavable SNAP-tag probe BG-S-S-549 (a gift from New England Biolabs) in complete medium for 30 min at room temperature. After washing, fresh serum-free medium ± agonist was added. At the end of incubation, the medium was removed and the wells were treated with for 5 min at 4 °C with Mesna (100 mM in alkaline TNE buffer at a pH of 8.6) to remove BG-S-S-549 bound to residual surface receptors without affecting the internalised receptor population or with alkaline TNE buffer alone. After washing, phase contrast and epifluorescence cellular imaging at 20× magnification was performed, followed by processing as previously described to quantify the amount of internalised receptor from the fluorescence intensity readings.

Data set [3] has as its system primary mouse hepatocytes. Put plainly: cAMP accumulation in primary mouse hepatocytes. Format: cell-based. Particulars: expressed relative to 10 μM forskolin response, mean ± SEM, n = 4; for cAMP 10 min (primary hepatocytes) Emax: 100 μM IBMX; for cAMP 16 h (primary hepatocytes) Emax: 100 μM IBMX for final 10 min. As for the experimental part:
Hepatocytes from adult male C57Bl/6J mice were isolated using collagenase perfusion. After filtering and washing, the cells were used to directly assay cAMP responses as described in the next section.
PathHunter cells were stimulated with the indicated concentration of agonist for 30 min at 37 °C in serum-free medium without phosphodiesterase inhibitors. INS-1 832/3 cells were stimulated with the indicated concentration of agonist for 10 min at 37 °C in serum-free medium with 100 μM of 3-isobutyl-1-methylxanthine (IBMX). Primary dispersed mouse islet cells prepared by triturating intact islets in 0.05% trypsin/EDTA for 3 min at 37 °C were stimulated with the indicated concentration of agonist for 5 min at 37 °C in serum-free medium with 11 mM of glucose and 500 μM of IBMX. Primary mouse hepatocytes were stimulated in serum-free medium with 100 μM of IBMX for 10 min or 16 h in serum-free medium with 100 μM of IBMX added for the final 10 min of incubation. Huh7-GCGR cells were stimulated in serum-free medium without phosphodiesterase inhibitors for 10 min or for 16 h in serum-free medium. Where relevant, forskolin (10 μM) was added as a positive or normalisation control. At the end of each incubation, cAMP was then assayed by HTRF (Cisbio cAMP Dynamic 2) and concentration-response curves were constructed with 3-parameter curve fitting using Prism 8.0.
(Cyclic AMP is a second messenger, typically raised through Gs and lowered through Gi signalling.)

Data set [4] can be described thus: Pharmacokinetic study in rats (SC with ZnCl2, plasma radioimmunoassay). The class given is in vivo, rat. The conditions noted are these: 4 mg/kg SC with zinc, up to 72 h. On the procedure: The mice were administered 0.5 mg/kg of peptide via IP injection. Four h after injection, blood was acquired by venesection into lithium heparin-coated microvette tubes (Sarstedt, Germany). In a separate study, male Sprague Dawley rats (average weight 250 g, obtained from Charles River) were administered 4 mg/kg of peptide SC mixed in aqueous ZnCl2 solution to a molar ratio of 0.7:1 (peptide:ZnCl2), and blood was collected by venesection at several time points up to 72 h. Plasma was separated by centrifugation at 10,000 g for 8 min at 4 °C. Plasma concentrations were assessed by radioimmunoassay using an in-house assay as previously described using standard curves generated from each SRB103 peptide to ensure that equivalent recovery was obtained.

In the next data set the target is GCGR (Homo sapiens, UniProt P47871). The data set can be described thus: NanoBiT mini-Gs recruitment to GCGR-SmBiT in HEK293T cells. Particulars: SRB103 pair, mean ± SEM, n = 6; for Emax: HEK-293T, normalised to full agonist response, read-out: GCGR mini-Gs (HEK293T) Emax; for EC50: 3-parameter fit, read-out: GCGR mini-Gs (HEK293T) pEC50 (converted). The arrangement: expressed in transfected cells; host or cells: HEK293T. Format: cell-based.

Where a SMILES comes first, the peptide text is derived from it. [ ]: non-standard residue; d: D form. Aib = CC(C)(N)C(=O)O

T1 sequence (P43220 24-463): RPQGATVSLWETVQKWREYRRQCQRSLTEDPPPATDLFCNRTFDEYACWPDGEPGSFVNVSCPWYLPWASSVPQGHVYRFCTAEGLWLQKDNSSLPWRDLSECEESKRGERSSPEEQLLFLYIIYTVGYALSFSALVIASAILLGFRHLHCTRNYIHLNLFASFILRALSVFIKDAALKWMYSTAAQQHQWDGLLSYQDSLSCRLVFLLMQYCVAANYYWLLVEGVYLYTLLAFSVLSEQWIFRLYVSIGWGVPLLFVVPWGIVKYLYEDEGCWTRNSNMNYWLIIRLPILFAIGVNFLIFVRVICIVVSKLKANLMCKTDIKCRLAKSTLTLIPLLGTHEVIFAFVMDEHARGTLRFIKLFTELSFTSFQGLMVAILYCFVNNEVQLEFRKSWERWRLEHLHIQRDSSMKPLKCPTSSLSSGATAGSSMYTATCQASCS
Chain of GCGR (P47871 26-477): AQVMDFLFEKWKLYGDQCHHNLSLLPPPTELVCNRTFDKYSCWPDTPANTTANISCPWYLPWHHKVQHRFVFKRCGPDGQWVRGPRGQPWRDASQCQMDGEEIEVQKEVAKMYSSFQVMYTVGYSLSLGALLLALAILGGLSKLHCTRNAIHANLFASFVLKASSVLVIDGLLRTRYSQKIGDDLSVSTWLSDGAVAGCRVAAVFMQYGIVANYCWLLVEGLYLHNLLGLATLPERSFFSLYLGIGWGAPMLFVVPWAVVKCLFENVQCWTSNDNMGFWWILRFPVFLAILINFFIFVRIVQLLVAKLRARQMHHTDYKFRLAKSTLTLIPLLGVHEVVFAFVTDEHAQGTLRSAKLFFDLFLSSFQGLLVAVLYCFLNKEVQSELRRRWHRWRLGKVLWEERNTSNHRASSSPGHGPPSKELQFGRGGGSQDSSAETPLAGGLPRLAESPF

As a reminder, the Emax is the size of the effect at its maximum, as opposed to the concentration needed. Regarding `CC[C@H](C)[C@H](NC(=O)[C@H](Cc1ccccc1)NC(=O)[C@H](CCC(=O)O)NC(=O)[C@H](CCC(N)=O)NC(=O)[C@H](C)NC(=O)[C@H](CCCNC(=N)N)NC(=O)[C@H](CCCCN)NC(=O)[C@H](C)NC(=O)[C@H](CC(=O)O)NC(=O)[C@H](CC(C)C)NC(=O)[C@H](Cc1ccc(O)cc1)NC(=O)[C@H](CCCCN)NC(=O)[C@H](CO)NC(=O)[C@H](Cc1ccc(O)cc1)NC(=O)[C@H](CC(=O)O)NC(=O)[C@H](CO)NC(=O)[C@@H](NC(=O)[C@H](Cc1ccccc1)NC(=O)[C@@H](NC(=O)CNC(=O)[C@H](Cc1c[nH]cn1)NC(=O)C(C)(C)NC(=O)[C@@H](N)Cc1c[nH]cn1)[C@@H](C)O)[C@@H](C)O)C(=O)N[C@@H](CCC(=O)O)C(=O)N[C@@H](Cc1c[nH]c2ccccc12)C(=O)N[C@@H](CC(C)C)C(=O)N[C@@H](CC(C)C)C(=O)N[C@@H](C)C(=O)NCC(=O)N[C@@H](Cc1c[nH]cn1)C(=O)N[C@@H](Cc1c[nH]cn1)C(=O)N[C@@H](Cc1c[nH]cn1)C(=O)N[C@@H](Cc1c[nH]cn1)C(=O)N[C@@H](Cc1c[nH]cn1)C(=O)N1CCC[C@H]1C(=O)N[C@@H](CO)C(=O)N[C@@H](Cc1c[nH]c2ccccc12)C(=O)O` [SRB103H] (H-H[Aib]HGTFTSDYSKYLDAKRAQEFIEWLLAGHHHHHPSW-OH), the EC50 at SNAP-GLP-1R [1] is 0.02 µM; on SNAP-GLP-1R [2], 0.00794 µM; at GCGR it was 0.00794 µM. Moreover, in data set [3], the “cAMP 10 min (primary hepatocytes) Emax” value is 170 ± 7. Also, in data set [3], the “cAMP 16 h (primary hepatocytes) Emax” value was 206 ± 7. In data set [4], the “Pharmacokinetics by serial plasma sampling” value was “no obvious difference in pharmacokinetics”. Besides, the Emax at GCGR amounted to 100%.

In the case of `CC[C@H](C)[C@H](NC(=O)[C@H](Cc1ccccc1)NC(=O)[C@H](CCC(=O)O)NC(=O)[C@H](CCC(N)=O)NC(=O)[C@H](C)NC(=O)[C@H](CCCNC(=N)N)NC(=O)[C@H](CCCCN)NC(=O)[C@H](C)NC(=O)[C@H](CC(=O)O)NC(=O)[C@H](CC(C)C)NC(=O)[C@H](Cc1ccc(O)cc1)NC(=O)[C@H](CCCCN)NC(=O)[C@H](CO)NC(=O)[C@H](Cc1ccc(O)cc1)NC(=O)[C@H](CC(=O)O)NC(=O)[C@H](CO)NC(=O)[C@@H](NC(=O)[C@H](Cc1ccccc1)NC(=O)[C@@H](NC(=O)CNC(=O)[C@H](CCC(N)=O)NC(=O)C(C)(C)NC(=O)[C@@H](N)Cc1c[nH]cn1)[C@@H](C)O)[C@@H](C)O)C(=O)N[C@@H](CCC(=O)O)C(=O)N[C@@H](Cc1c[nH]c2ccccc12)C(=O)N[C@@H](CC(C)C)C(=O)N[C@@H](CC(C)C)C(=O)N[C@@H](C)C(=O)NCC(=O)N[C@@H](Cc1c[nH]cn1)C(=O)N[C@@H](Cc1c[nH]cn1)C(=O)N[C@@H](Cc1c[nH]cn1)C(=O)N[C@@H](Cc1c[nH]cn1)C(=O)N[C@@H](Cc1c[nH]cn1)C(=O)N1CCC[C@H]1C(=O)N[C@@H](CO)C(=O)N[C@@H](Cc1c[nH]c2ccccc12)C(=O)O` [SRB103Q] (H-H[Aib]QGTFTSDYSKYLDAKRAQEFIEWLLAGHHHHHPSW-OH), the EC50 at SNAP-GLP-1R [1] is 0.02 µM; on SNAP-GLP-1R [2] it was 0.00251 µM; on GCGR, 0.02 µM. Moreover, the “cAMP 10 min (primary hepatocytes) Emax” value in data set [3] amounted to 175 ± 12. The “cAMP 16 h (primary hepatocytes) Emax” value in data set [3] amounted to 200 ± 6. For the same molecule, the “Pharmacokinetics by serial plasma sampling” value in data set [4] is on record as “no obvious difference in pharmacokinetics”. Besides, at GCGR, the Emax is 83 ± 1%.
